Laboratory results from ChEMBL document CHEMBL1150853, “A new dehydrogeranylgeraniol antioxidant from Saururus cernuus that inhibits intracellular reactive oxygen species (ROS)-catalyzed oxidation within HL-60 cells” (J Nat Prod, 2001).
Calls of active or inactive are those of the source. The calls are words filed in the database; no cut-off is given here.

How the values were obtained:
HL-60 [1] = assay: Antioxidant activity in phorbol 12-myristate 13-acetate-stimulated human HL60 cells assessed as inhibition of exogenous hydrogen peroxide-catalyzed oxidation of 2',7'-dichlorodihydrofluorescein diacetate at 50 ug/mL pretreated 30 mins before PMA challenge by flow cytometry; type: functional, cell-based
HL-60 [2] = assay: Antioxidant activity in human HL60 cells assessed as inhibition of endogenous hydrogen peroxide-catalyzed oxidation of 2',7'-dichlorodihydrofluorescein diacetate at 50 ug/mL by flow cytometry; type: functional, cell-based
HL-60 [3] = assay: Cytotoxicity against human HL60 cells at 5 ug/mL after 4 hrs by XTT assay; type: cell-based; conditions: hl-60, 4 h
[4] = tested on: Colletotrichum gloeosporioides; assay: Antifungal activity against Colletotrichum gloeosporioides at 100 nmol by 2D-TLC bioautography assay; type: functional, organism-based
HL-60 [5] = assay: Antioxidant activity in human HL60 cells assessed as inhibition of endogenous hydrogen peroxide-catalyzed oxidation of 2',7'-dichlorodihydrofluorescein diacetate at 5 ug/mL by flow cytometry; type: functional
[6] = tested on: Radical scavenging activity; assay: Antioxidant activity assessed as DPPH radical scavenging activity after 30 mins by modified 2D TLC autographic assay; type: functional
Colletotrichum fragariae = assay: Antifungal activity against Colletotrichum fragariae at 100 nmol by 2D-TLC bioautography assay; type: functional, organism-based
Colletotrichum acutatum = assay: Antifungal activity against Colletotrichum acutatum at 100 nmol by 2D-TLC bioautography assay; type: functional, organism-based
HL-60 [7] = assay: Antioxidant activity in phorbol 12-myristate 13-acetate-stimulated human HL60 cells assessed as inhibition of exogenous hydrogen peroxide-catalyzed oxidation of 2',7'-dichlorodihydrofluorescein diacetate at 5 ug/mL pretreated 30 mins before PMA challenge by flow cytometry; type: functional

**Q.** What does the source list for VITAMIN E?
**A.** inhibition (HL-60 [1]): 32.4%; inhibition (HL-60 [2]): inactive

**Q.** How did the Activity (HL-60 [3]) turn out when `CC(C)=C/C=C/C(C)=C/CC/C(C)=C/CC/C(C)=C/CO` was run?
**A.** Non-toxic

**Q.** What about the Activity [4] of the same compound?
**A.** Active

**Q.** And the inhibition at 5 µg/mL (HL-60 [5])?
**A.** 8%

**Q.** And the Activity [6]?
**A.** Active

**Q.** And the Activity (Colletotrichum fragariae)?
**A.** Active

**Q.** And the Activity (Colletotrichum acutatum)?
**A.** Active

**Q.** And the inhibition at 5 µg/mL (HL-60 [7])?
**A.** 28%
